Source: US20120058983A1, “Adenosine A1 agonists for the treatment of glaucoma and ocular hypertension” (BAYER PHARMA AKTIENGESELLSCHAFT, priority 2010, published 2012)

Tests used:
rabbits = rabbits (Lit. 6,7,8); cited from earlier work
cynomolgus monkeys = cynomolgus monkeys (Lit. 9); cited from earlier work
Wistar rats = assay: IOP measurements in rats (topical administration to the eye; IOP and hemodynamic parameters); assay type: in vivo, rat
Procedure: Wistar rats with a body weight of about 300 g were anesthetized with isoflurane (2-3% in O2:N2O=1:2). The test compounds were diluted in 0.9% sodium chloride and given by topical administration to the eye in 10 μl volume at a concentration of 10 mg/ml. IOP was measured with a rebound tonometer (TonoLab) at different time points after application of the drugs. Ocular pressure and effects of hemodynamic parameters can be monitored in this model.
N^6-Cyclopentyl-Adenosine and Example 1 reduce IOP at a volume of 10 μl (concentration 10 mg/ml).

Compound | intraocular pressure (rabbits) | intraocular pressure (cynomolgus monkeys) | effects on mean arterial blood pressure / hemodynamic parameters (Wistar rats; Wistar rats, 10 mg/ml (FIG. 2)) | IOP (Wistar rats; anesthetized Wistar rats, 10 μl volume, concentration 10 mg/ml, rebound tonometer (FIG. 1))
C[C@H](Cc1ccccc1)Nc1ncnc2c1ncn2[C@@H]1O[C@H](CO)[C@@H](O)[C@H]1O [R-PIA, R(−)-N-6-(2-phenylisopropyl)adenosine] | lower intraocular pressure | lower intraocular pressure |  | 
OC[C@H]1O[C@@H](n2cnc3c(NC4CCCC4)ncnc32)[C@H](O)[C@@H]1O [N^6-Cyclopentyl-Adenosine] |  |  | significantly reduces blood pressure | reduce IOP
OC[C@H]1O[C@@H](n2cnc3c(NC4CCCCC4)ncnc32)[C@H](O)[C@@H]1O [CHA, N6-cyclohexyl-adenosine] | lower intraocular pressure | lower intraocular pressure |  | 
